Reference: patent US20040024024A1, “Aromatic sulfone hydroxamates and their use as protease inhibitors” (priority 2001, published 2004)
pIC50, pKi: −log10 of the molar value. Counter-ions that a name gives are not always drawn.

What was measured:
[1] = target: T1, Human recombinant MMP-1 (Homo sapiens, UniProt P03956); test: In vitro MMP inhibition, IC50 determination (fluorogenic substrate I); type: biochemical
T1 construct: made in house; host or cells: MMP-1-transfected HT-1080 cells (spent media)
T1 sequence (P03956 100-469): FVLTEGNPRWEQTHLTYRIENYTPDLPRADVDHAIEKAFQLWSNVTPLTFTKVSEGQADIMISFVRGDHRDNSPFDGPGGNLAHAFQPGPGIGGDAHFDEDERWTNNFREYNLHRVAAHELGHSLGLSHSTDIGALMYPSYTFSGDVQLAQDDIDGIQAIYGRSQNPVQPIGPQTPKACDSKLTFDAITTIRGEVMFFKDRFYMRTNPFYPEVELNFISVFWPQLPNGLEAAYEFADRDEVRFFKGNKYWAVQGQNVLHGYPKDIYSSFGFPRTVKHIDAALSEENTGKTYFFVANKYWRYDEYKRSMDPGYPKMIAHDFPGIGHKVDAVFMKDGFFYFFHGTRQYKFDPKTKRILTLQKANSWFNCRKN
In short: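 Inhibitor dilutions were made in 100 mM Tris-HCl/100 mM NaCl/10 mM CaCl2 buffer, pH 7.5, and incubated at room temperature with activated proenzyme (from transfected HT-1080 media; APMA or trypsin) and 4 μM quenched methoxycoumarin peptide substrate. Loss of 415 nm fluorescence (328 nm excitation) against concentration gave IC50.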

[2] = target: T2, Human recombinant MMP-13 (Homo sapiens, UniProt P45452); test: In vitro MMP inhibition, Ki determination (fluorogenic substrate II); type: biochemical
T2 construct: made in house; host or cells: baculovirus / insect cells
Experimental: Several hydroxamates and salts thereof were analyzed in in vitro assays to determine their ability to inhibit the MMP cleavage of peptide substrates. Inhibition (Ki) and IC50 constants were calculated from the assayed hydroxamate-MMP interactions.
Human recombinant MMP-1, MMP-2, MMP-9, MMP-13, and MMP-14 were used in this assay. All enzymes were prepared in Assignee's laboratories following usual laboratory procedures. Protocols for the preparation and use of these enzymes are available in the scientific literature. See, e.g., Enzyme Nomenclature (Academic Press, San Diego, Calif., 1992) (and the citations therein). See also, Frije et al., J. Biol. Chem., 26(24), 16766-73 (1994).
The expressed proenzyme was first purified over a heparin agarose column, and then over a chelating zinc chloride column. The proenzyme was then activated by APMA for use in the assay. Further details on baculovirus expression systems may be found in, for example, Luckow et al., J. Virol., 67, 4566-79 (1993). See also, O'Reilly et al, Baculovirus Expression Vectors: A Laboratory Manual (W. H. Freeman and Co., New York, N.Y., 1992). See also, King et al., The Baculovirus Expression System: A Laboratory Guide (Chapman & Hall, London, England, 1992).
All MMPs were activated using 4-aminophenylmercuric acetate (“APMA”, Sigma Chemical, St. Louis, Mo.) or trypsin. MMP-9 also was activated using human recombinant MMP-3 (purified in Assignee's laboratory following standard cloning and purification techniques).
Two fluorogenic, methoxycoumarin-containing polypeptide substrates were used in the MMP inhibition assays:
MCA-ArgProLeuGlyLeuDpaAlaArgGluArgNH2 (II)
Here, “Dpa” is 3-(2,4-dinitrophenyl)-L-2,3-diaminopropionyl group, and “MCA” is 7-methoxycoumarin-4-yl acetyl. Substrate (I) was purchased from Baychem (Redwood City, Calif.), and substrate II was prepared Assignee's laboratory. Substrate I was used in the IC50 determination assays, while substrate II was used in the Ki determination assays. In the absence of MMP inhibitory activity, either substrate is cleaved at the Gly-Leu peptide bond. This cleavage separates the highly fluorogenic peptide from the 2,4-dinitrophenyl quencher, thus resulting in increase of fluorescent intensity.
The stock solutions of the assayed hydroxamates (or salts thereof) were prepared in 1% dimethyl sulfoxide (DMSO). These stock solutions were diluted in Buffer A (100 mM Tris-HCl, 100 mM NaCl, 10 mM CaCl2, 0.05% polyoxyethylene 23 lauryl ether, pH 7.5) to obtain solutions with different hydroxamate concentrations, i.e., assay solutions with different concentrations of the assayed MMP inhibitory compound. The experiment controls contained the same amount of Buffer A/DMSO as the assayed sample, but contained no hydroxamate (or salt thereof).
The assays from which the Ki determinations were made were performed as follows. The assayed hydroxamate samples were incubated in separate wells of untreated white polystyrene plates (Nunc Nalgene International, Rochester, N.Y.), and analyzed on a Tecan SpectraFlour Plus plate reader. The excitation wavelength was 330 nm, and the emission wavelength—420 nm. All samples (assayed hydroxamates and controls) were incubated in separate plate wells at room temperature for 1 hr in the presence of 4 μM of MMP substrate (II). In the absence of MMP inhibitory activity, substrate II was cleaved at the Gly-Leu bond resulting in an increase of relative fluorescence. Inhibition was observed as a reduced rate of this increase in relative fluorescence. The various hydroxamates were analyzed using a single low enzyme concentration with a single substrate concentration fixed at or below the Km. This protocol is a modification of method by Knight et al., FEBS Lett., 296(3), 263-266 (1992). Apparent inhibitory constants were determined by non-linear regression of reaction velocity as a function of inhibitor and enzyme concentration using Morrison's equation, as described by Kuzmic, Anal. Biochem. 286, 45-50 (2000). […]

[3] = substrate (I) 4 μM, room temperature, values not in parenthesis
[4] = substrate (II) 4 μM, 1 hr room temperature, apparent Ki, values in parenthesis

pIC50 ([1]; value outside parenthesis) | pKi ([2]; value in parenthesis) | SMILES | other results
< 5.00 | 9.02 | O=C(NO)C1(S(=O)(=O)c2ccc(OCCCc3cccc(Br)c3)cc2)CCOCC1 [Example 154] | –
– | – | O=C(NO)C1(S(=O)(=O)c2ccc(OCCCc3cccc(-c4ccoc4)c3)cc2)CCOCC1 [Example 637] | pIC50 ([1]; value outside parentheses): < 5.00; pKi ([2]; value in parentheses): 8.33
– | – | O=C(NO)C1(S(=O)(=O)c2ccc(OCCCc3cccc(-c4ccc5c(c4)OCO5)c3)cc2)CCOCC1 [Example 628] | pIC50 ([1]; value outside parentheses): < 5.00; pKi ([2]; value in parentheses): 7.70
< 5.00 | 7.79 | Cc1ccc(-c2cccc(CCOc3ccc(S(=O)(=O)C4(C(=O)NO)CCOCC4)cc3)c2)cc1 [Example 127] | –
– | – | COCCN1CCC(C(=O)NO)(S(=O)(=O)c2ccc(OCCCc3nc(-c4ccc(OC(F)(F)F)cc4)no3)cc2)CC1 [Example 42] | pIC50 [1, 3]: < 5.00; pKi [2, 4]: 9.31
< 5.00 | 9.67 | CC(C)c1cccc(NC(=O)CCCOc2ccc(S(=O)(=O)C3(C(=O)NO)CCOCC3)cc2)c1 [Example 182] | –
5.16 | 9.49 | O=C(CCCOc1ccc(S(=O)(=O)C2(C(=O)NO)CCOCC2)cc1)Nc1ccc(OC(F)(F)F)cc1 [Example 228] | –
< 5.00 | 8.04 | O=C(NO)C1(S(=O)(=O)c2ccc(OCCCc3cccc(Cc4ccccc4)c3)cc2)CCOCC1 [Example 98] | –
< 5.00 | 8.13 | O=C(NO)C1(S(=O)(=O)c2ccc(OCCc3cccc(-c4ccc(F)cc4)c3)cc2)CCOCC1 [Example 123] | –
< 5.00 | 9.57 | O=C(CCCOc1ccc(S(=O)(=O)C2(C(=O)NO)CCOCC2)cc1)Nc1cccc(OC(F)(F)F)c1 [Example 181] | –
– | – | CCN1CCC(C(=O)NO)(S(=O)(=O)c2ccc(OCCCSc3nc4ccccc4s3)cc2)CC1 [Example 591] | pIC50 ([1]; value outside parentheses): < 5.00; pKi ([2]; value in parentheses): 9.72
– | – | O=C(NO)C1(S(=O)(=O)c2ccc(OCCCc3cccc(-c4ccc([N+](=O)[O-])cc4)c3)cc2)CCOCC1 [Example 626] | pIC50 ([1]; value outside parentheses): < 5.00; pKi ([2]; value in parentheses): 8.12
– | – | O=C(NO)C1(S(=O)(=O)c2ccc(OCCCc3nc(-c4ccc(OC(F)(F)F)cc4)no3)cc2)CCN(C2CC2)CC1 [Example 51, 1-cyclopropyl-N-hydroxy-4-{[4-(3-{3-[4-(trifluoromethoxy)phenyl]-1,2,4-oxadiazol-5-yl}propoxy)phenyl]sulfonyl}piperidine-4-carboxamide Hydrochloride] | pIC50 [1, 3]: < 5.00; pKi [2, 4]: 8.77
– | – | O=C(NO)C1(S(=O)(=O)c2ccc(OCCCc3cccc(-c4ccsc4)c3)cc2)CCOCC1 [Example 632] | pIC50 ([1]; value outside parentheses): < 5.00; pKi ([2]; value in parentheses): 8.18
< 5.00 | 8.54 | O=C(NO)C1(S(=O)(=O)c2ccc(OCCCc3cccc(-c4ccc(F)cc4)c3)cc2)CCN(C2CC2)CC1 [Example 139] | –
< 5.00 | 9.23 | O=C(NO)C1(S(=O)(=O)c2ccc(OCCCc3cccc(-c4cccnc4)c3)cc2)CCOCC1 [Example 150] | –
– | – | N#Cc1ccc(-c2cccc(CCCOc3ccc(S(=O)(=O)C4(C(=O)NO)CCOCC4)cc3)c2)cc1 [Example 624] | pIC50 ([1]; value outside parentheses): < 5.00; pKi ([2]; value in parentheses): 9.05
< 5.00 | 9.45 | O=C(CCCc1ccc(S(=O)(=O)C2(C(=O)NO)CCOCC2)cc1)c1cccc(-c2ccccc2)c1 [Example 219] | –

pIC50 ([1]; value outside parenthesis) | pKi ([2]; value in parenthesis) | SMILES | other results
< 5.00 | 7.94 | O=C(NO)C1(S(=O)(=O)c2ccc(OCCCc3cccc(-c4ccccc4F)c3)cc2)CCOCC1 [Example 163] | –
< 5.00 | 8.65 | O=C(NO)C1(S(=O)(=O)c2ccc(OCCc3cccc(-c4ccccc4F)c3)cc2)CCOCC1 [Example 115] | –
< 5.00 | 8.70 | COCCN1CCC(C(=O)NO)(S(=O)(=O)c2ccc(OCCCc3nc(-c4ccc(CC(C)C)cc4)no3)cc2)CC1 [Example 175] | –
– | – | O=C(NO)C1(S(=O)(=O)c2ccc(OCCCn3nnc(-c4ccc(OC(F)(F)F)cc4)n3)cc2)CCN(CC2CC2)CC1 [Example 53] | pIC50 [1, 3]: < 5.00; pKi [2, 4]: 9.18
– | – | O=C(NO)C1(S(=O)(=O)c2ccc(OCCCc3cccc(-c4cccs4)c3)cc2)CCOCC1 [Example 595] | pIC50 ([1]; value outside parentheses): < 5.00; pKi ([2]; value in parentheses): 8.14
– | – | CCN1CCC(C(=O)NO)(S(=O)(=O)c2ccc(OCCCc3nc(-c4ccc(OC(F)(F)F)cc4)no3)cc2)CC1 [Example 41, 1-ethyl-N-hydroxy 4-{[4-(3-{3-[4-(trifluoromethoxy)phenyl]-1,2,4-oxadiazol-5-yl}propoxy)phenyl]sulfonyl}piperidine-4-carboxamide Hydrochloride] | pIC50 [1, 3]: < 5.00; pKi [2, 4]: 8.98
– | – | COCCN1CCC(C(=O)NO)(S(=O)(=O)c2ccc(OCCCn3nnc(-c4ccc(OC(F)(F)F)cc4)n3)cc2)CC1 [Example 48] | pIC50 [1, 3]: < 5.00; pKi [2, 4]: 9.90
– | – | O=C(Cc1csc2ccccc12)NCCOc1ccc(S(=O)(=O)C2(C(=O)NO)CCOCC2)cc1 [Example 596] | pIC50 ([1]; value outside parentheses): < 5.00; pKi ([2]; value in parentheses): 9.40
< 5.00 | 8.77 | COCCN1CCC(C(=O)NO)(S(=O)(=O)c2ccc(OCCCc3nnc(-c4ccccc4C(F)(F)F)o3)cc2)CC1 [Example 178] | –
5.36 | 9.90 | O=C(CCCOc1ccc(S(=O)(=O)C2(C(=O)NO)CCOCC2)cc1)Nc1ccc(OC(F)(F)F)cc1 [Example 250] | –
5.30 | 9.57 | Cc1cc(OC(F)(F)F)ccc1NC(=O)CCCOc1ccc(S(=O)(=O)C2(C(=O)NO)CCOCC2)cc1 [Example 229] | –
– | – | O=C(NO)C1(S(=O)(=O)c2ccc(OCCCc3cncc(-c4ccc(F)cc4)c3)cc2)CCOCC1 [Example 523] | pIC50 ([1]; value outside parentheses): 5.09; pKi ([2]; value in parentheses): 9.63
< 5.00 | 8.58 | COCCN1CCC(C(=O)NO)(S(=O)(=O)c2ccc(OCCCc3nc(-c4ccccc4OC(F)(F)F)no3)cc2)CC1 [Example 152] | –
< 5.00 | 9.86 | COc1ccc(/C(C#N)=C/CCCOc2ccc(S(=O)(=O)C3(C(=O)NO)CCN(C4CC4)CC3)cc2)cc1 [Example 233] | –
5.53 | 9.77 | O=C(NO)C1(S(=O)(=O)c2ccc(OCCc3cccc(-c4cccnc4)c3)cc2)CCOCC1 [Example 125] | –
– | – | O=C(NO)C1(S(=O)(=O)c2ccc(OCCCc3cc(-c4ccc(OC(F)(F)F)cc4)cs3)cc2)CCOCC1 [Example 608] | pIC50 ([1]; value outside parentheses): < 5.00; pKi ([2]; value in parentheses): 8.03
< 5.00 | 9.51 | O=C(NO)C1(S(=O)(=O)c2ccc(OCCc3cccc(-c4ccncc4)c3)cc2)CCOCC1 [Example 113] | –

SMILES | pIC50 ([1]; value outside parenthesis) | pKi ([2]; value in parenthesis) | other results
COCCN1CCC(C(=O)NO)(S(=O)(=O)c2ccc(OCCCc3nc(-c4ccc(OC(F)(F)F)cc4)no3)cc2)CC1 [Example 190] | < 5.00 | 9.22 | –
